Legend:
Format in all cases: biochemical
Conditions in all cases: Table 6; inhibit 50% of activity at 50 μM
JAK1 = molecular target: T1, JAK1 (Homo sapiens, UniProt P23458); assay: JAK1 kinase domain capture-based ELISA kinase assay
T1 construct: The kinase domain of humanJAK1 was amplified from U937mRNA; His tag (from pFastBac HTb vector; nickel chelate purification) (N); made in house; host or cells: baculovirus; virus made in Sf9, large-scale expression in High Five insect cells
Method: (§1) For screening purposes, compounds were diluted in 96 well plates at a concentration of 50 μM or 20 μM. Plates were warmed at 37° C. for 30 minutes before assay.
The kinase domain of humanJAK1 was amplified from U937mRNA using the polymerase chain reaction with the following primers: […]
JAK1 PCR products were cloned into the pFastBac HTb expression vector (Gibco) via the Xho I and Kpn I sites. The JAK1 plasmid was then transformed into competent DH10Bac cells (Gibco), and the recombinant baculovirus produced prepared for transfection into Sf9 insect cells.
(§2) Baculovirus preparations from each of the JAK family members were infected into five litres of High Five cells (Invitrogen) grown in High Five serum free medium (Invitrogen) to a cell density of approximately 1-2×10^6 cells/ml. Cells are infected with virus at a MOI of 0.8-3.0. Cells were harvested and lysed. JAK kinase domains were purified by affinity chromatography on a Probond (Invitrogen) nickel chelate affinity column.
(§3) The biotinylated substrate biotin-EGPWLEEEEEAYGWMDF-NH2 (SEQ ID NO:9) (final concentration 5 μM) was used as substrate, and tyrosine phosphorylation was quantitated following transfer to an avidin coated ELISA plate using peroxidase-linked anti-phospho-tyrosine antibody PY20.
(§4) Inhibitors were added to the assays fifteen minutes prior to the addition of ATP. Inhibitors were added in aqueous DMSO, with DMSO concentrations never exceeding 1%.

JAK2 = molecular target: T2, JAK2 (Homo sapiens, UniProt O60674); assay: JAK2 kinase domain capture-based ELISA kinase assay
T2 construct: The kinase domain of humanJAK2 was amplified from U937mRNA; His tag (from pFastBac HTc vector; nickel chelate purification) (N); made in house; host or cells: baculovirus; virus made in Sf9, large-scale expression in High Five insect cells
Method: as §1
The kinase domain of humanJAK2 was amplified from U937mRNA using the polymerase chain reaction with the following primers: […]
JAK2 PCR products were cloned into the pFastBac HTc expression vector (Gibco) via the Sal I and Not I sites. The JAK2 plasmid was then transformed into competent DH10Bac cells (Gibco), and the recombinant baculovirus produced prepared for transfection into Sf9 insect cells.
as §2, §3, §4

JAK3 = molecular target: T3, JAK3 (Homo sapiens, UniProt P52333); assay: JAK3 kinase domain capture-based ELISA kinase assay
T3 construct: The kinase domain of humanJAK3 was amplified from U937mRNA; His tag (from pFastBac HTb vector; nickel chelate purification) (N); made in house; host or cells: baculovirus; virus made in Sf9, large-scale expression in High Five insect cells
Method: as §1
The kinase domain of humanJAK3 was amplified from U937mRNA using the polymerase chain reaction with the following primers: […]
JAK3 PCR products were cloned into the pFastBac HTb expression vector (Gibco) via the Xho I and Kpn I sites. The JAK3 plasmid was then transformed into competent DH10Bac cells (Gibco), and the recombinant baculovirus produced prepared for transfection into Sf9 insect cells.
as §2, §3, §4

TYK2 = molecular target: T4, TYK2 (Homo sapiens, UniProt P29597); assay: TYK2 kinase domain capture-based ELISA kinase assay
T4 construct: The kinase domain of humanTYK2 was amplified from A549 mRNA; His tag (from pBlueBacHis2A vector; nickel chelate purification) (N); made in house; host or cells: baculovirus; virus made in Sf9, large-scale expression in High Five insect cells
T4 sequence (P29597 897-1176 limits assumed): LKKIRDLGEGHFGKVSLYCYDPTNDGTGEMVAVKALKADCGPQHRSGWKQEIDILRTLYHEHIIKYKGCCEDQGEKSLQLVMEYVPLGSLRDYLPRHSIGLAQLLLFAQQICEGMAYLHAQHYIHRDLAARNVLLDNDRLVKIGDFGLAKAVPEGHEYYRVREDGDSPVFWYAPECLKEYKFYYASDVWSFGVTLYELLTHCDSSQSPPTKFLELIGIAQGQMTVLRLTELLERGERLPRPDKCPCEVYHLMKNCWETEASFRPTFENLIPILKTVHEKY
Method: as §1
The kinase domain of humanTYK2 was amplified from A549 mRNA using the polymerase chain reaction with the following primers: […]
TYK2 PCR products were cloned into pBlueBacHis2A (Invitrogen) via the EcoRI site. The recombinant TYK2 baculovirus produced was prepared for transfected into Sf9 insect cells.
as §2, §3, §4

T1 sequence (P23458 875-1153 limits assumed): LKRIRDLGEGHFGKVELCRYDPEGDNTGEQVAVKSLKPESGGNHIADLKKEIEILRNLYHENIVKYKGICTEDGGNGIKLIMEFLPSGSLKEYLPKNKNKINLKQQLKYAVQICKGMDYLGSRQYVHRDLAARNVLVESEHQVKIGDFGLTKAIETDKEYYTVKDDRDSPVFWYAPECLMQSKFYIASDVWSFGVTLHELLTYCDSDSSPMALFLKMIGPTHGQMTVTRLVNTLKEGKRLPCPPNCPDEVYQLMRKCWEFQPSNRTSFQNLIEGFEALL
T3 sequence (P52333 822-1111 limits assumed): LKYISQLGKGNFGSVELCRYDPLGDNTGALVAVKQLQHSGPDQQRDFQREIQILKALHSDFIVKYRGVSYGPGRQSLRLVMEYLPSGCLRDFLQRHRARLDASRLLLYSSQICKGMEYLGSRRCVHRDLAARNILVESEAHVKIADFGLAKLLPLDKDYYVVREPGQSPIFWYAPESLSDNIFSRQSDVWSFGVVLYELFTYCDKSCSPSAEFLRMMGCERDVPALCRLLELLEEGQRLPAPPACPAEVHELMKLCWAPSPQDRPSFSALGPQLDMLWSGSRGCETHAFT
T2 sequence (O60674 849-1124 limits assumed): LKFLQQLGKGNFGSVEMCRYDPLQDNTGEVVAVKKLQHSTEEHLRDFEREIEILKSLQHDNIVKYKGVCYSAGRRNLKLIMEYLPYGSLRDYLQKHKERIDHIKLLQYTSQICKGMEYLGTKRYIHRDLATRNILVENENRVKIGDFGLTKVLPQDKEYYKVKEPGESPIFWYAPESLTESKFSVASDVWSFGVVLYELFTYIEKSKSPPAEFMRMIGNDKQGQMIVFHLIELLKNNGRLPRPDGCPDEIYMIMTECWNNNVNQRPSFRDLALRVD

SMILES | IC50 (JAK1) | IC50 (JAK2) | IC50 (JAK3) | IC50 (TYK2)
Fc1ccccc1-c1cn2ccnc2c(Nc2ccc(N3CCOCC3)cc2)n1 | < 50 µM | < 50 µM | > 50 µM | < 50 µM
Fc1ccc(-c2cn3ccnc3c(Nc3ccc4[nH]ccc4c3)n2)cc1Cl | < 50 µM | > 50 µM | > 50 µM | < 50 µM
COc1ccc(Nc2nc(-c3ccccc3F)cn3ccnc23)cn1 | < 50 µM | < 50 µM | > 50 µM | > 50 µM
CCNc1nc(-c2ccc(N(C)C)cc2)cn2ccnc12 | < 50 µM | > 50 µM | > 50 µM | > 50 µM
c1cn2cc(-c3ccc4c(c3)OCO4)nc(Nc3ccc(N4CCOCC4)cc3)c2n1 | < 50 µM | < 50 µM | > 50 µM | < 50 µM
COc1ccccc1-c1cn2ccnc2c(Nc2ccc(N3CCOCC3)cc2)n1 | < 50 µM | < 50 µM | > 50 µM | < 50 µM
CN1CCCN(c2nc(-c3cccc4ccccc34)cn3ccnc23)CC1 | < 50 µM | > 50 µM | > 50 µM | > 50 µM
Cc1ccc(Nc2nc(-c3ccccc3Cl)cn3ccnc23)cc1NS(C)(=O)=O | < 50 µM | < 50 µM | > 50 µM | < 50 µM
c1ccc2cc(-c3cn4ccnc4c(Nc4ccc(N5CCOCC5)cc4)n3)ccc2c1 | < 50 µM | < 50 µM | > 50 µM | > 50 µM
O=C(O)CCc1ccc(-c2cn3ccnc3c(NCCc3ccncc3)n2)cc1 | > 50 µM | > 50 µM | < 50 µM | > 50 µM
Fc1ccccc1-c1cn2ccnc2c(NCCc2cccnc2)n1 | < 50 µM | < 50 µM | < 50 µM | > 50 µM
CCNc1nc(-c2ccc(O)c(OC)c2)cn2ccnc12 | < 50 µM | < 50 µM | < 50 µM | > 50 µM
O=C(O)CCc1ccc(-c2cn3ccnc3c(NCc3ccco3)n2)cc1 | > 50 µM | > 50 µM | < 50 µM | < 50 µM
CC(=O)Nc1ccc(Nc2nc(-c3ccc4c(c3)OCO4)cn3ccnc23)cc1 | < 50 µM | < 50 µM | < 50 µM | < 50 µM
Cc1ccc(S(=O)(=O)Nc2ccc(Nc3nc(-c4ccc(CCC(=O)O)cc4)cn4ccnc34)cc2)cc1 | < 50 µM | < 50 µM | > 50 µM | < 50 µM
c1coc(-c2cn3ccnc3c(Nc3ccc(N4CCOCC4)cc3)n2)c1 | < 50 µM | < 50 µM | > 50 µM | < 50 µM

Next, values leading:

IC50 (JAK1) | IC50 (JAK2) | IC50 (JAK3) | IC50 (TYK2) | SMILES
> 50 µM | < 50 µM | > 50 µM | < 50 µM | c1ccc(Nc2nc(-c3ccco3)cn3ccnc23)cc1
< 50 µM | < 50 µM | > 50 µM | < 50 µM | Brc1cn2ccnc2c(Nc2ccccc2)n1
< 50 µM | < 50 µM | > 50 µM | < 50 µM | NCc1cccc(-c2cn3ccnc3c(Nc3ccccc3)n2)c1
< 50 µM | < 50 µM | > 50 µM | < 50 µM | COc1ccccc1-c1cn2ccnc2c(Nc2ccc(CCO)cc2)n1
< 50 µM | < 50 µM | > 50 µM | < 50 µM | O=C(NCCO)c1ccc(-c2cn3ccnc3c(Nc3ccccc3)n2)cc1
< 50 µM | < 50 µM | > 50 µM | > 50 µM | COc1cc(-c2cn3ccnc3c(Nc3ccccc3)n2)cc(OC)c1OC
> 50 µM | < 50 µM | > 50 µM | > 50 µM | FC(F)(F)Oc1cccc(-c2cn3ccnc3c(Nc3ccccc3)n2)c1
< 50 µM | < 50 µM | > 50 µM | > 50 µM | CN(C)CCNC(=O)c1cccc(-c2cn3ccnc3c(Nc3ccc(Cl)cc3)n2)c1
< 50 µM | > 50 µM | > 50 µM | > 50 µM | CCCNc1nc(-c2cccc(N)c2)cn2ccnc12

— patent US20060069084A1, “Methods of inhibiting kinases” (priority 2001, published 2006)
